Assay results published in patent US6573218B1, “Fused-benzene derivatives useful as herbicides” (Ishihara Sangyo Kaisha, Ltd., priority 1998, dated 2003).

What was measured:
Assay type in all cases: in vivo
[1] = system: field corn (Zea mays L., var. Dekalb 527, CORN); assay: Pre-emerge greenhouse crop damage test; details: var. Dekalb 527, field corn (Zea mays L.), in vivo, 14 days
Description: (§1) A standard greenhouse herbicide activity screening system was used to evaluate the herbicidal efficacy and crop safety of these test compounds. Seven broadleaf weed species including redroot pigweed (Amaranthus retroflexus, AMARE), velvetleaf (Abutilon theophrasti, ABUTH), sicklepod (Cassia obtusifolia, CASOB), ivyleaf morningglory (Ipomoea hederacea, IPOHE), lambsquarters (Chenopodium album, CHEAL), common ragweed (Ambrosia artemisiifolia L., AMBEL), and cocklebur (Xanthium strumarium, XANST) were used as test species. Four grass weed species including green foxtail (Setaria viridis, SETVI), barnyardgrass (Echinochloa crus-galli, ECHCG), johnsongrass (Sorghum halepense, SORHA), and large crabgrass (Digitaria sanguinalis, DIGSA) were also used. In addition, three crop species, field corn (Zea mays L., var. Dekalb 527, CORN), soybean (Glycine max L., var. Pella 86, SOY), and upland rice (Ory0a sp., var.Tebonnet, RICE) were included.
(§2) All plants were grown in 10 cm square plastic pots which were filled with a sandy loam soil mix. For pre-emerge tests, seeds were planted one day prior to application of the test compounds. For post-emerge tests, seeds were planted 8-21 days prior to the test to allow emergence and good foliage development prior to application of the test substances. At the time of the post-emerge application, plants of all species were usually at the 2-3 leaf stage of development.
(§3) All test compounds were dissolved in acetone and applied to the test units in a volume of 187 l/ha. Test materials were applied at rates ranging from 15 g ai/ha to 1000 g ai/ha using a track sprayer equipped with a TJ8001E even flow flat fan spray nozzle. Plants were arranged on a shelf so that the top of the canopy (post-emerge) or top of the soil surface (pre-emerge) was 40-45 cm below the nozzle. Pressurized air was used to force the test solution through the nozzle as it was mechanically advanced over the top of all test plants/pots. This application simulates a typical commercial field herbicide application.
(§4) In the post-emerge test, a commercial non-ionic surfactant was also included (0.25% v/v) to enhance wetting of the leaf surfaces of target plants. Immediately after application, test units of the pre-emerge applications were watered at the soil surface to incorporate the test materials.
(§5) At 14 days after application of the test materials, phytotoxicity ratings were recorded. A rating scale of 0-100 was used as previously described in Research Methods in Weed Science, 2nd edition, B. Truelove, Ed., Southern Weed Science Society, Auburn University, Auburn, Ala., 1977. Briefly, “0” corresponds to no damage and “100” corresponds to complete death of all plants in the test unit. This scale was used both to determine efficacy against weed species and damage to crop species. Herbicide activity data for various compounds of this invention, which are shown by compound No. in Tables 1-14, are shown in Tables 16 and 17.

[2] = system: upland rice (Ory0a sp., var.Tebonnet, RICE); assay: Pre-emerge greenhouse crop damage test; details: var. Tebonnet, upland rice (Ory0a sp.), in vivo, 14 days
Description: as §1, §2, §3, §4, §5

[3] = system: soybean (Glycine max L., var. Pella 86, SOY); assay: Pre-emerge greenhouse crop damage test; details: var. Pella 86, soybean (Glycine max L.), in vivo, 14 days
Description: as §1, §2, §3, §4, §5

[4] = system: johnsongrass (Sorghum halepense, SORHA); assay: Pre-emerge greenhouse herbicide test; details: 250 g ai/ha, 14 days after application, scale 0-100 (0 no damage, 100 complete death)
Description: as §1, §2, §3, §4, §5

[5] = system: large crabgrass (Digitaria sanguinalis, DIGSA); assay: Pre-emerge greenhouse herbicide test; details: 250 g ai/ha, 14 days after application, scale 0-100 (0 no damage, 100 complete death)
Description: as §1, §2, §3, §4, §5

[6] = system: ivyleaf morningglory (Ipomoea hederacea, IPOHE); assay: Pre-emerge greenhouse herbicide test; details: 250 g ai/ha, 14 days after application, scale 0-100 (0 no damage, 100 complete death)
Description: as §1, §2, §3, §4, §5

[7] = system: velvetleaf (Abutilon theophrasti, ABUTH); assay: Pre-emerge greenhouse herbicide test; details: 250 g ai/ha, 14 days after application, scale 0-100 (0 no damage, 100 complete death)
Description: as §1, §2, §3, §4, §5

[8] = system: lambsquarters (Chenopodium album, CHEAL); assay: Pre-emerge greenhouse herbicide test; details: 250 g ai/ha, 14 days after application, scale 0-100 (0 no damage, 100 complete death)
Description: as §1, §2, §3, §4, §5

[9] = system: redroot pigweed (Amaranthus retroflexus, AMARE); assay: Pre-emerge greenhouse herbicide test; details: 250 g ai/ha, 14 days after application, scale 0-100 (0 no damage, 100 complete death)
Description: as §1, §2, §3, §4, §5

[10] = system: green foxtail (Setaria viridis, SETVI); assay: Pre-emerge greenhouse herbicide test; details: 250 g ai/ha, 14 days after application, scale 0-100 (0 no damage, 100 complete death)
Description: as §1, §2, §3, §4, §5

[11] = system: barnyardgrass (Echinochloa crus-galli, ECHCG); assay: Pre-emerge greenhouse herbicide test; details: 250 g ai/ha, 14 days after application, scale 0-100 (0 no damage, 100 complete death)
Description: as §1, §2, §3, §4, §5

[12] = system: sicklepod (Cassia obtusifolia, CASOB); assay: Pre-emerge greenhouse herbicide test; details: 250 g ai/ha, 14 days after application, scale 0-100 (0 no damage, 100 complete death)
Description: as §1, §2, §3, §4, §5

[13] = system: field corn (Zea mays L., var. Dekalb 527, CORN); assay: Post-emerge greenhouse crop damage test; details: var. Dekalb 527, field corn (Zea mays L.), in vivo, 14 days
Description: as §1, §2, §3, §4, §5

[14] = system: upland rice (Ory0a sp., var.Tebonnet, RICE); assay: Post-emerge greenhouse crop damage test; details: var. Tebonnet, upland rice (Ory0a sp.), in vivo, 14 days
Description: as §1, §2, §3, §4, §5

[15] = system: soybean (Glycine max L., var. Pella 86, SOY); assay: Post-emerge greenhouse crop damage test; details: var. Pella 86, soybean (Glycine max L.), in vivo, 14 days
Description: as §1, §2, §3, §4, §5

[16] = system: johnsongrass (Sorghum halepense, SORHA); assay: Post-emerge greenhouse herbicide test; details: 250 g ai/ha, 14 days after application
Description: as §1, §2, §3, §4, §5

[17] = system: large crabgrass (Digitaria sanguinalis, DIGSA); assay: Post-emerge greenhouse herbicide test; details: 250 g ai/ha, 14 days after application
Description: as §1, §2, §3, §4, §5

[18] = system: ivyleaf morningglory (Ipomoea hederacea, IPOHE); assay: Post-emerge greenhouse herbicide test; details: 250 g ai/ha, 14 days after application
Description: as §1, §2, §3, §4, §5

[19] = system: velvetleaf (Abutilon theophrasti, ABUTH); assay: Post-emerge greenhouse herbicide test; details: 250 g ai/ha, 14 days after application
Description: as §1, §2, §3, §4, §5

[20] = system: lambsquarters (Chenopodium album, CHEAL); assay: Post-emerge greenhouse herbicide test; details: 250 g ai/ha, 14 days after application
Description: as §1, §2, §3, §4, §5

[21] = system: redroot pigweed (Amaranthus retroflexus, AMARE); assay: Post-emerge greenhouse herbicide test; details: 250 g ai/ha, 14 days after application
Description: as §1, §2, §3, §4, §5

[22] = system: green foxtail (Setaria viridis, SETVI); assay: Post-emerge greenhouse herbicide test; details: 250 g ai/ha, 14 days after application
Description: as §1, §2, §3, §4, §5

[23] = system: barnyardgrass (Echinochloa crus-galli, ECHCG); assay: Post-emerge greenhouse herbicide test; details: 250 g ai/ha, 14 days after application
Description: as §1, §2, §3, §4, §5

[24] = system: sicklepod (Cassia obtusifolia, CASOB); assay: Post-emerge greenhouse herbicide test; details: 250 g ai/ha, 14 days after application
Description: as §1, §2, §3, §4, §5

SMILES | Pre-emerge Herbicidal Activity CORN (crop damage rating) [1] | Pre-emerge Herbicidal Activity RICE (crop damage rating) [2] | Pre-emerge Herbicidal Activity SOY (crop damage rating) [3] | Pre-emerge Herbicidal Activity SORHA (phytotoxicity rating) [4] | Pre-emerge Herbicidal Activity DIGSA (phytotoxicity rating) [5] | Pre-emerge Herbicidal Activity IPOHE (phytotoxicity rating) [6] | Pre-emerge Herbicidal Activity ABUTH (phytotoxicity rating) [7] | Pre-emerge Herbicidal Activity CHEAL (phytotoxicity rating) [8] | Pre-emerge Herbicidal Activity AMARE (phytotoxicity rating) [9] | Pre-emerge Herbicidal Activity SETVI (phytotoxicity rating) [10] | Pre-emerge Herbicidal Activity ECHCG (phytotoxicity rating) [11] | Pre-emerge Herbicidal Activity CASOB (phytotoxicity rating) [12] | Post-emerge crop damage CORN (phytotoxicity rating 0-100) [13] | Post-emerge crop damage RICE (phytotoxicity rating 0-100) [14] | Post-emerge crop damage SOY (phytotoxicity rating 0-100) [15] | Post-emerge Herbicidal Activity SORHA (phytotoxicity rating 0-100) [16] | Post-emerge Herbicidal Activity DIGSA (phytotoxicity rating 0-100) [17] | Post-emerge Herbicidal Activity IPOHE (phytotoxicity rating 0-100) [18] | Post-emerge Herbicidal Activity ABUTH (phytotoxicity rating 0-100) [19] | Post-emerge Herbicidal Activity CHEAL (phytotoxicity rating 0-100) [20] | further results
CC1Oc2c(Cl)cc(F)c(-n3c(=O)cc(C(F)(F)F)n(C)c3=O)c2NC1=O (stereo not drawn) [Compound 4-3, 3-(8-Chloro-6-fluoro-2-methyl-2H-1,4-benzoxazin-3-one-5-yl)-1-methyl-6-trifluoromethyl-2,4(1H,3H)-pyrimidindione] | 99 | 99 | 100 | 100 | 100 | 100 | 100 | 100 | 100 | 100 | 99 | 100 | 100 | 80 | 100 | 90 | 70 | 100 | 100 | 100 | Post-emerge Herbicidal Activity AMARE (phytotoxicity rating 0-100) [21]: 100; Post-emerge Herbicidal Activity SETVI (phytotoxicity rating 0-100) [22]: 50; Post-emerge Herbicidal Activity ECHCG (phytotoxicity rating 0-100) [23]: 80; Post-emerge Herbicidal Activity CASOB (phytotoxicity rating 0-100) [24]: 95
CCc1nc2c(-n3c(=O)n4n(c3=S)CCC=C4)c(F)cc(Cl)c2o1 [Compound 8-1, 8-(7-Chloro-2-ethyl-5-fluorobenzoxazol-4-yl)-1,6,8-triazabicyclo[4,3,0]2-nonene-9-one-7-thione] | 50 | 20 | 60 | 100 | 100 | 60 | 100 | 100 | 100 | 100 | 90 | 90 | 80 | 80 | 100 | 99 | 70 | 100 | 100 | 99 | Post-emerge Herbicidal Activity AMARE (phytotoxicity rating 0-100) [21]: 100; Post-emerge Herbicidal Activity SETVI (phytotoxicity rating 0-100) [22]: 100; Post-emerge Herbicidal Activity ECHCG (phytotoxicity rating 0-100) [23]: 90; Post-emerge Herbicidal Activity CASOB (phytotoxicity rating 0-100) [24]: 100
